For one assay, the system named is Jurkat cells. The assay can be described thus: Jurkat cell growth by MTT assay. Type of assay: cell-based. The settings on record: 0.01-1 μM, 72 h. As to the method:
(§1) (A) PBMCs were cultured with pomalidomide (“Pom”) (0.01-1 μM) for 16 h. […] (B) PBMCs were cultured with pomalidomide (0.1 and 1 μM) for the indicated time periods. (C) PBMCs were cultured with lenalidomide (“Len”) (1 μM) for 16 h. (D) Primary T-cells from healthy volunteer were cultured with pomalidomide (0.25-1 μM) for 16 h. (E) Jurkat cells were cultured with pomalidomide (0.5 and 1 μM) for 16 h. Whole cell lysates were subjected to immunoblotting (A-E) using indicated Abs. (F) Jurkat cells were cultured with pomalidomide (0.01-1 μM) or lenalidomide (0.01-1 μM) for 72 h. Cell growth was assessed by MTT assay.
For orientation: Tetrazolium dyes change colour on reduction, which living cells bring about.

In assay [1] the target is T1, Zap-70 (Homo sapiens, UniProt P43403).
T1 sequence (P43403 1-619): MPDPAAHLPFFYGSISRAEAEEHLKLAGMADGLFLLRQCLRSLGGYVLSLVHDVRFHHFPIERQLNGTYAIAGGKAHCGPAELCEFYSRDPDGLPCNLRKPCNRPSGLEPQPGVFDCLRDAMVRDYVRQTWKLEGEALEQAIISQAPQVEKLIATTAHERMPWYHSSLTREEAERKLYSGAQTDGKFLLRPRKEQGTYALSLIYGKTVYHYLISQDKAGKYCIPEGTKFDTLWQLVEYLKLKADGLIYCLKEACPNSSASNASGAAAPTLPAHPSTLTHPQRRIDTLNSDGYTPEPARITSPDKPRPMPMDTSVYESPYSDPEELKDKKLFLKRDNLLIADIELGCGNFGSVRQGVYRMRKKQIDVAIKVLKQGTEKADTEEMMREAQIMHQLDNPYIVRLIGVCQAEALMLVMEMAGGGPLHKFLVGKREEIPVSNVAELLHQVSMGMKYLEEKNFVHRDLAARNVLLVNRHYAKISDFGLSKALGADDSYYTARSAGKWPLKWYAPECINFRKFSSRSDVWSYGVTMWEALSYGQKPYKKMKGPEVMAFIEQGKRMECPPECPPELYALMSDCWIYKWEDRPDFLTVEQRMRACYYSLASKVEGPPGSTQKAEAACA
Nature of the assay: Immunoblotting of p-Zap-70 in Jurkat cells. Type of assay: cell-based. The settings on record: 16 h. As to the method:
as §1
(A) Jurkat cells were transfected with scrambled siRNA (Scsi) or CRBN siRNA (CRBNsi). Whole cell lysates were subjected to immunoblotting using indicated Abs. (B) Jurkat cells transfected with Scsi or CRBNsi were cultured with pomalidomide (1 μM) for 16 h. Whole cell lysates were subjected to immunoblotting using indicated Abs. (C) Jurkat cells were transfected with Scsi or Zap-70 siRNA (Zap-70si) (left panel). The transfectants were further cultured for 72 h, and cell growth was assessed by MTT assay (right panel).
In general terms: A western blot detects proteins with antibodies after separation by electrophoresis.

In assay [2] the target is T1, Zap-70. Nature of the assay: Immunoblotting of p-Zap-70 in NK-92 cells. Type of assay: cell-based. The settings on record: 24 h, Pom 0.5 and 1 μM, CC-220 0.01, 0.1, 1 μM. As to the method: (A) NK-92 cells were cultured with Pom (0.5 and 1 μM) for 24 h. Whole cell lysates were subjected to immunoblotting using indicated Abs. (B) NK-92 cells were cultured with Pom (0.5 and 1 μM) for 48 h. The cells were subsequently incubated with calcein-AM-stained U266 cells for 4 h at the indicated effector/target (E/T) ratios. Percent specific lysis was calculated as described previously. (C) NK-92 cells were cultured with Pom (0.03-3 μM) for 72 h. Cell growth was assessed by MTT assay. (D) NK-92 cells were transfected with scrambled (Sc) or Zap-70 siRNA (Zap70si). After 72 h incubation, cell viability was measured by trypan-blue dye exclusion. For B, C, and D, data are representative of at least two independent experiments, and values are expressed in mean±SD.
(A) NK-92 cells were cultured with Len (1 μM), Pom (0.01, 0.1, 1 μM) or CC-220 (0.01, 0.1, 1 μM) for 24 h. Whole cell lysates were subjected to immunoblotting using indicated Abs. (B) NK-92 cells were cultured with Pom (0.1 and 1 μM) or CC-220 ([…]) for 48 h. NK cell activity was measured by incubation with calcein AM-labeled U266 cells for 4 h at E/T ratio of 2.5/1. Percent specific lysis was calculated as previously described. Data are representative of three independent experiments, and values are expressed in mean±SD. *: p<0.01.

For a further assay, the system named is primary NK cells. Nature of the assay: Primary NK cell viable cell number by trypan-blue dye exclusion. Particulars: primary NK cells #1, #2, pomalidomide 0-0.5 μM, 24 h. The format is cell-based, human. As to the method:
Isolated primary NK cells from two healthy volunteers were cultured for 24 h with pomalidomide (0-0.5 μM). Viable cell number was measured by trypan-blue dye exclusion.

A further assay deals with granzyme-B (GZM-B). The assay can be described thus: GZM-B expression in primary NK cells (immunoblotting). Type of assay: cell-based, human. The settings on record: primary NK cells #1, #2, pomalidomide 0.3-1 μM, 24 h. As to the method:
(A) KHYG1 cells were cultured with pomalidomide (0.25-1 μM) for 24 h. (B) Isolated primary NK cells from healthy volunteers (#1, #2) were cultured with pomalidomide (0.3-1 μM) for 24 h. (C) KHYG-1 cells were transfected with Scsi or Zap-70si. After 48 h, cells were cultured for 24 h in the absence or presence (0.5 μM) of pomalidomide. Whole cell lysates and RNAs were subjected to immunoblotting using indicated Abs.

The target in assay [3] is T1, Zap-70. Nature of the assay: PathScan Phospho-Zap-70 (Tyr319) Sandwich ELISA in Jurkat cells. The settings on record: lenalidomide (1 and 3 μM) or pomalidomide (1 and 3 μM), 4 h and 8 h, Len<Pom. The format is cell-based. As to the method:
(A) Jurkat cells were transfected with scrambled (Sc) siRNA or Zap-70 siRNA. Whole cell lysates were subjected to immunoblotting using indicated Abs. (B) Jurkat cells were treated with lenalidomide ([…]) or pomalidomide (1 and 3 μM) for 4 h and 8 h. Whole cell lysates were subjected to p-Zap ELISA assay. (C) Jurkat whole cell lysates were incubated with pomalidomide-beads in the presence or absence of competitor (1 mM free pomalidomide) for 1 h. After elution, samples were subjected to immunoblotting using anti-Zap-70 Ab. (D) Saturation-transfer difference resulting from the binding of pomalidomide to Zap-70. Pomalidomide is at 320 μM and Zap-70 is approximately 2 μM in deuterated PBS solution. […] (E) Saturation-transfer difference resulting from the binding of pomalidomide to Zap-70 in the presence of 2.56 mMATP. Pomalidomide is at 320 μM and Zap-70 is approximately 2 μM in deuterated PBS solution. […] Note that both ATP and pomalidomide show binding the Zap-70. (F) Non-cell based Zap-70 kinase assay was carried out, according to manufacturer's protocol.
Phosphorylation of Zap-70 was evaluated using PathScan Phospho-Zap-70 (Tyr319) Sandwich ELISA Kit (Cell Signaling Technology), according to manufacturer's protocol.
On the technique in general: ELISA stands for enzyme-linked immunosorbent assay.

Take `Nc1cccc2c1C(=O)N(C1CCC(=O)NC1=O)C2=O` (stereo not shown) [pomalidomide]: the “proliferation / cell growth (MTT)” value with Jurkat cells was “without altering their proliferation”. At Zap-70 [1] (CRBN siRNA, pomalidomide 1 μM), the “p-Zap-70 induced by pomalidomide in CRBN-knockdown versus control Sc KD cells” value is given as “No significant change”. Further, the “p-Zap-70 (immunoblotting)” value on Zap-70 [1] (pomalidomide 0.5 and 1 μM) was “similarly induced p-Zap-70 in Jurkat cells in a dose-dependent fashion”; at Zap-70 [2] it was “induced increased p-Zap70”. In addition, the “NK cell growth (viable cell number)” value in the assay with primary NK cells was “without significantly effecting NK cell growth”. Besides, the GZM-B expression result with granzyme-B (GZM-B) is listed as “upregulated GZM-B expression”. Besides, the “p-Zap-70 (Tyr319) by ELISA” value on Zap-70 [3] is on record as “increased p-Zap-70 (Tyr319) in a dose-dependent fashion”.

For the origin of these results see patent US20240216354A1, “IMMUNOMODULATORY IMIDE DRUGS AS ZETA-CHAIN-ASSOCIATED PROTEIN KINASE 70 (ZAP70) AGONISTS AND USES THEREOF” (Dana-Farber Cancer Institute, Inc., priority 2019, published 2024).
